Measured values taken from PubChem BioAssay AID256 (DTP/NCI, 2004).
Values joined by “and” are separate entries in the source; they are usually repeats but may differ in a detail not shown here. Equal values may be shown once. Inconclusive results and toxic doses are left out. How the source made its calls: active means survival T/C of 150% or more; inactive means T/C below 125% in these data.

Test system: CD2F1 mice, L1210 leukemia ip, survival T/C
Assay: NCI In Vivo Anticancer Drug Screen. Data for tumor model L1210 Leukemia (intraperitoneal) in CD2F1 (CDF1) mice
Conditions: higher = longer survival
In short: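 Mice carrying a transplanted tumor received test compound or vehicle alone. The value is the measurement in the treated group divided by that in the vehicle-treated control group.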

[1] = endpoint: mean survival time, dose: 100.0 mg/kg/injection, schedule: Q01DX009 (ip), vehicle: saline
[2] = endpoint: mean survival time, dose: 200.0 mg/kg/injection, schedule: Q01DX009 (ip), vehicle: saline
[3] = endpoint: mean survival time, dose: 400.0 mg/kg/injection, schedule: Q01DX009 (ip), vehicle: saline
[4] = endpoint: mean survival time, dose: 100.0 mg/kg/injection, schedule: Q04DX003 (ip), vehicle: saline with Tween-80
[5] = endpoint: mean survival time, dose: 200.0 mg/kg/injection, schedule: Q04DX003 (ip), vehicle: saline with Tween-80
[6] = endpoint: mean survival time, dose: 100.0 mg/kg/injection, schedule: Q01DX009 (ip), vehicle: saline with Tween-80
[7] = endpoint: mean survival time, dose: 100.0 mg/kg/injection, schedule: Q04DX002 (ip), vehicle: saline with Tween-80
[8] = endpoint: mean survival time, dose: 200.0 mg/kg/injection, schedule: Q04DX002 (ip), vehicle: saline with Tween-80
[9] = endpoint: mean survival time, dose: 400.0 mg/kg/injection, schedule: Q04DX002 (ip), vehicle: saline with Tween-80

Measured: T/C

O=NNc1ccc2cccnc2n1
active: endpoint: median survival time, dose: 12.5 mg/kg/injection, schedule: Q01DX005 (ip), vehicle: water 153 % of control | endpoint: median survival time, dose: 25.0 mg/kg/injection, schedule: Q01DX005 (ip), vehicle: water 162 % of control | endpoint: median survival time, dose: 50.0 mg/kg/injection, schedule: Q01DX005 (ip), vehicle: water 164 % of control | endpoint: median survival time, dose: 60.0 mg/kg/injection, schedule: Q01DX005 (ip), vehicle: water 223 % of control | endpoint: median survival time, dose: 100.0 mg/kg/injection, schedule: Q01DX005 (ip), vehicle: water 175 % of control and 181 % of control
inactive: endpoint: median survival time, dose: 166.66 mg/kg/injection, schedule: Q01DX005 (ip), vehicle: water 105 % of control

CC1OC(OC2C(OC3CCC4(C)C(CCC5(C)C4CC=C4C6CC(C)(C)CCC6(CO)C(O)CC45C)C3(C)C)OC(CO)C(OC3OC(COC4OC(CO)C(O)C(O)C4O)C(O)C(O)C3O)C2O)C(O)C(O)C1O (stereo not given)
inactive: endpoint: mean survival time, dose: 50.0 mg/kg/injection, schedule: Q01DX001 (sc), vehicle: steriod suspending solution 103 % of control

CC(=O)C(c1ccccc1)N(C)C(=O)c1ccccc1 (stereo not given)
inactive: [1] 95 % of control | [2] 94 % of control | [3] 104 % of control

O=NN(CCSCCCCl)C(=O)NC1CCCCC1
inactive: endpoint: mean survival time, dose: 6.25 mg/kg/injection, schedule: Q01DX001 (ip), vehicle: distilled water + Tween-80 96 % of control | endpoint: mean survival time, dose: 12.5 mg/kg/injection, schedule: Q01DX001 (ip), vehicle: distilled water + Tween-80 96 % of control | endpoint: mean survival time, dose: 25.0 mg/kg/injection, schedule: Q01DX001 (ip), vehicle: distilled water + Tween-80 101 % of control | endpoint: mean survival time, dose: 50.0 mg/kg/injection, schedule: Q01DX001 (ip), vehicle: distilled water + Tween-80 102 % of control | endpoint: mean survival time, dose: 100.0 mg/kg/injection, schedule: Q01DX001 (ip), vehicle: distilled water + Tween-80 101 % of control | endpoint: mean survival time, dose: 200.0 mg/kg/injection, schedule: Q01DX001 (ip), vehicle: distilled water + Tween-80 102 % of control | endpoint: mean survival time, dose: 400.0 mg/kg/injection, schedule: Q01DX001 (ip), vehicle: distilled water + Tween-80 118 % of control

NC1CC(CO)C(O)C1O (stereo not given)
inactive: endpoint: mean survival time, dose: 75.0 mg/kg/injection, schedule: Q01DX001 (ip), vehicle: saline 101 % of control | endpoint: mean survival time, dose: 150.0 mg/kg/injection, schedule: Q01DX001 (ip), vehicle: saline 103 % of control | endpoint: mean survival time, dose: 300.0 mg/kg/injection, schedule: Q01DX001 (ip), vehicle: saline 107 % of control

COC(=O)CC(=O)NC(C)CC1CNc2ccccc21 (stereo not given)
inactive: [4] 103 % of control | [5] 103 % of control | endpoint: mean survival time, dose: 400.0 mg/kg/injection, schedule: Q04DX003 (ip), vehicle: saline with Tween-80 97 % of control

N#CC(/C=C/c1ccccc1)Nc1ccccc1O (stereo not given)
inactive: [6] 93 % of control

CCN1CC1 (tested in a mixture with another compound)
inactive: endpoint: mean survival time, dose: 1.17 mg/kg/injection, schedule: Q01DX009 (ip), vehicle: Klucel (hydroxypropylcellulose) (HPC) 93 % of control | endpoint: mean survival time, dose: 1.56 mg/kg/injection, schedule: Q04DX003 (ip), vehicle: other 92 % of control | endpoint: mean survival time, dose: 2.34 mg/kg/injection, schedule: Q01DX009 (ip), vehicle: Klucel (hydroxypropylcellulose) (HPC) 102 % of control | endpoint: mean survival time, dose: 3.12 mg/kg/injection, schedule: Q04DX003 (ip), vehicle: other 101 % of control | endpoint: mean survival time, dose: 4.68 mg/kg/injection, schedule: Q01DX009 (ip), vehicle: Klucel (hydroxypropylcellulose) (HPC) 86 % of control | endpoint: mean survival time, dose: 6.25 mg/kg/injection, schedule: Q04DX003 (ip), vehicle: other 91 % of control | endpoint: mean survival time, dose: 9.37 mg/kg/injection, schedule: Q04DX003 (ip), vehicle: Klucel (hydroxypropylcellulose) (HPC) 96 % of control and 98 % of control | endpoint: mean survival time, dose: 14.2 mg/kg/injection, schedule: Q04DX003 (ip), vehicle: Klucel (hydroxypropylcellulose) (HPC) 86 % of control and 94 % of control | endpoint: mean survival time, dose: 21.3 mg/kg/injection, schedule: Q04DX003 (ip), vehicle: Klucel (hydroxypropylcellulose) (HPC) 103 % of control

C(=N\Nc1nc2ccccc2s1)/c1cccnc1
inactive: endpoint: mean survival time, dose: 100.0 mg/kg/injection, schedule: Q04DX003 (ip), vehicle: Klucel (hydroxypropylcellulose) (HPC) 97 % of control | endpoint: mean survival time, dose: 200.0 mg/kg/injection, schedule: Q04DX003 (ip), vehicle: Klucel (hydroxypropylcellulose) (HPC) 94 % of control | endpoint: mean survival time, dose: 400.0 mg/kg/injection, schedule: Q04DX003 (ip), vehicle: Klucel (hydroxypropylcellulose) (HPC) 100 % of control

CCSCCN1C(=O)C2C3CCC(O3)C2C1=O (stereo not given)
inactive: [7] 93 % of control | [8] 93 % of control

CC1OC(n2ncc(=O)[nH]c2=O)C(O)C(O)C1O (stereo not given)
inactive: endpoint: mean survival time, dose: 12.5 mg/kg/injection, schedule: Q01DX005 (ip), vehicle: distilled water + Tween-80 105 % of control | endpoint: mean survival time, dose: 25.0 mg/kg/injection, schedule: Q01DX005 (ip), vehicle: distilled water + Tween-80 100 % of control | endpoint: mean survival time, dose: 50.0 mg/kg/injection, schedule: Q01DX005 (ip), vehicle: distilled water + Tween-80 103 % of control | endpoint: mean survival time, dose: 100.0 mg/kg/injection, schedule: Q01DX005 (ip), vehicle: distilled water + Tween-80 103 % of control | endpoint: mean survival time, dose: 200.0 mg/kg/injection, schedule: Q01DX005 (ip), vehicle: distilled water + Tween-80 107 % of control

COC(=O)c1ccccc1I
inactive: [7] 107 % of control | [8] 96 % of control | [9] 107 % of control

CCCCCCCCCCCCCCCC(=O)N(C/C=C/CN(C(=O)CCCCCCCCCCCCCCC)C(C)CCCN(CC)CC)C(C)CCCN(CC)CC (stereo not given)
inactive: endpoint: mean survival time, dose: 12.5 mg/kg/injection, schedule: Q01DX009 (ip), vehicle: other 97 % of control | endpoint: mean survival time, dose: 25.0 mg/kg/injection, schedule: Q01DX009 (ip), vehicle: other 94 % of control

Cc1ccc(S(=O)(=O)CC(=O)O)cc1
inactive: [4] 102 % of control | [5] 102 % of control

Nc1ncnc2[nH]c(=O)[nH]c12
inactive: endpoint: mean survival time, dose: 12.5 mg/kg/injection, schedule: Q01DX009 (ip), vehicle: saline 101 % of control | endpoint: mean survival time, dose: 25.0 mg/kg/injection, schedule: Q01DX009 (ip), vehicle: saline 114 % of control | endpoint: mean survival time, dose: 50.0 mg/kg/injection, schedule: Q01DX009 (ip), vehicle: saline 105 % of control | endpoint: mean survival time, dose: 100.0 mg/kg/injection, schedule: Q04DX003 (ip), vehicle: saline 108 % of control | endpoint: mean survival time, dose: 200.0 mg/kg/injection, schedule: Q04DX003 (ip), vehicle: saline 112 % of control | endpoint: mean survival time, dose: 400.0 mg/kg/injection, schedule: Q04DX003 (ip), vehicle: saline 108 % of control

CC1(C)N=C(N)N=C(N)N1c1ccc(OCCNS(=O)(=O)c2cccc(S(=O)(=O)F)c2)c(Cl)c1
inactive: endpoint: mean survival time, dose: 12.5 mg/kg/injection, schedule: Q01DX009 (ip), vehicle: saline with Tween-80 108 % of control | endpoint: mean survival time, dose: 25.0 mg/kg/injection, schedule: Q01DX009 (ip), vehicle: saline with Tween-80 110 % of control | endpoint: mean survival time, dose: 50.0 mg/kg/injection, schedule: Q01DX009 (ip), vehicle: saline with Tween-80 117 % of control | endpoint: mean survival time, dose: 100.0 mg/kg/injection, schedule: Q01DX001 (ip), vehicle: saline with Tween-80 97 % of control | [7] 97 % of control | endpoint: mean survival time, dose: 200.0 mg/kg/injection, schedule: Q01DX001 (ip), vehicle: saline with Tween-80 107 % of control | endpoint: mean survival time, dose: 200.0 mg/kg/injection, schedule: Q01DX009 (ip), vehicle: saline with Tween-80 94 % of control | [8] 108 % of control | endpoint: mean survival time, dose: 400.0 mg/kg/injection, schedule: Q01DX001 (ip), vehicle: saline with Tween-80 111 % of control | [9] 101 % of control
active: [6] 164 % of control

CCOC(=O)C(F)(F)F
inactive: [1] 95 % of control | [2] 103 % of control | [3] 95 % of control

CCOC(=O)CNC(=O)Sc1ccc(C(C)(C)C)cc1
inactive: endpoint: mean survival time, dose: 12.5 mg/kg/injection, schedule: Q01DX009 (ip), vehicle: Klucel (hydroxypropylcellulose) (HPC) 96 % of control and 105 % of control | endpoint: mean survival time, dose: 25.0 mg/kg/injection, schedule: Q01DX009 (ip), vehicle: Klucel (hydroxypropylcellulose) (HPC) 101 % of control and 105 % of control | endpoint: mean survival time, dose: 50.0 mg/kg/injection, schedule: Q01DX009 (ip), vehicle: Klucel (hydroxypropylcellulose) (HPC) 101 % of control and 102 % of control | endpoint: mean survival time, dose: 100.0 mg/kg/injection, schedule: Q01DX009 (ip), vehicle: Klucel (hydroxypropylcellulose) (HPC) 100 % of control and 105 % of control | endpoint: mean survival time, dose: 200.0 mg/kg/injection, schedule: Q01DX009 (ip), vehicle: Klucel (hydroxypropylcellulose) (HPC) 100 % of control and 103 % of control | endpoint: mean survival time, dose: 400.0 mg/kg/injection, schedule: Q01DX009 (ip), vehicle: Klucel (hydroxypropylcellulose) (HPC) 97 % of control

CCCCC(CC)C(=O)[O][Sn]([CH2]CCC)([CH2]CCC)[O]C(=O)C(CC)CCCC (stereo not given)
inactive: endpoint: mean survival time, dose: 1.5 mg/kg/injection, schedule: Q01DX009 (ip), vehicle: saline with Tween-80 100 % of control | endpoint: mean survival time, dose: 3.0 mg/kg/injection, schedule: Q01DX009 (ip), vehicle: saline with Tween-80 100 % of control | endpoint: mean survival time, dose: 6.0 mg/kg/injection, schedule: Q01DX009 (ip), vehicle: saline with Tween-80 104 % of control | endpoint: mean survival time, dose: 6.25 mg/kg/injection, schedule: Q04DX003 (ip), vehicle: saline with Tween-80 105 % of control
